We go through one molecule from patent publication US11376266B2, “Antitumor agent” (KEIO UNIVERSITY, priority 2016, dated 2022).

In brackets after ≈: the same amount, converted by molar mass. Where two headings read alike, the source gives them in different places.

Data set [1] deals with human colon cancer HCT-116 cells. Kind of data set: Antitumor effect of sulfasalazine in mice bearing subcutaneous HCT-116 tumors. In kind it is in vivo, KSN nude mice. Conditions: 250 mg/kg intraperitoneally once per day; Days 14 and 28 after transplantation; versus saline control; FIG. 1. Here is the method:
The human colon cancer HCT-116 cells that proliferate in a CD44v-dependent manner were administered subcutaneously to KSN nude mice to form tumors. The cells were transplanted into 10 mice. 250 mg/kg of sulfasalazine or 100 μl of saline was injected to each of groups of 5 mice intraperitoneally once per day. Diameter of tumors was measured on Days 14 and 28 after transplantation and their weights were calculated based on the diameters and compared between the two groups.

Data set [2] in a line: Solubility test in pure water and saline (UV absorption at 238 nm). In kind it is physicochemical. Conditions: thermodynamic from solid, room temperature, PEGylated values calculated as sulfasalazine. How it is done: The aqueous solutions thus obtained were centrifuged at 8000 rpm for 30 minutes at room temperature, and 50 μL of each supernatant was taken. One microliter of 5N NaOH solution was added to the supernatant and UV absorption (at 238 nm) was measured for the resulting solution, thereby sulfasalazine concentration in the solution (solubility in pure water and saline) was calculated.

For a further data set, the system named is T98G cell line. Particulars: 0 to 1250 μM calculated as sulfasalazine, two days, FIG. 6.

Procedure for T98G cell line: Using the same medium as in (3), the T98G cell line was seeded onto 96-well plates at 3,000 cells/well. On the next day, sulfasalazine and the type-A PEGylated sulfasalazines were added at 0 to 1250 μM calculated in concentrations of sulfasalazine. Two days later, cell viability was measured using a CellTiter-Glo (Promega).

As for `O=C(O)c1cc(/N=N/c2ccc(S(=O)(=O)Nc3ccccn3)cc2)ccc1O` [Sulfasalazine], in data set [1], the “tumor growth (tumor weight calculated from diameter)” value is listed as “significantly slower”. The solubility in data set [2] (pure water, water, read-out: Saturated solubility, pure water) is 50 µg/mL (≈ 126 µM); in data set [2] (saline, saline or isotonic, read-out: Saturated solubility, saline), 37 µg/mL (≈ 92.9 µM). Besides, the “cell viability, concentration dependence (cytotoxicity)” value in the data set on T98G cell line is recorded as “substantially identical concentration dependence”.
